Laboratory results from patent US20230348453A1, “HALOGENATED-HETEROARYL AND OTHER HETEROCYCLIC KINASE INHIBITORS, AND USES THEREOF” (iOmx Therapeutics AG, priority 2020, published 2023).
Where two headings read alike, the source gives them in different places.

What was measured:
[1] = molecular target: HCK (Homo sapiens (Human), UniProt P08631); type: biochemical; details: Kinase Profiler
[2] = molecular target: T1, RET (Homo sapiens (Human), UniProt P07949)
[3] = test system: KU812 tumours; details: 50 mg/kg/day for 5 days; cited from earlier work
[4] = test system: K562 CML cells; details: 10 mg/kg/day; cited from earlier work
[5] = cited from earlier work
[6] = in vitro; details: dog, MDCK, MDCK-wild type cells
[7] = molecular target: MDR1 (P-gp) (Homo sapiens (Human), UniProt P08183); assay: in vitro; details: dog, MDCK-MDR1, MDCK-MDR1 cells
[8] = molecular target: hERG potassium channel (Homo sapiens (Human), UniProt Q12809); details: cited from earlier work
[9] = human, in vivo; cited from earlier work
[10] = molecular target: T1, RET; assay: biochemical; details: read-out: RET residual activity (%) at 1 μM, 1 μM
[11] = Full pharmacokinetic study in mice; details: mouse, in vivo
[12] = Screening PK in mice after 30 mg/kg po; details: mouse, in vivo
[13] = test system: panel of AML cell lines; assay: Lysis of a panel of AML cell lines; type: cell-based; details: cell lines that have phosphorylated MEF2C protein
[14] = test system: KASUMI-1 cell line; assay: Cell killing of pMEF2C-positive KASUMI-1 cell line; type: cell-based
[15] = test system: HEL cell line; assay: Cell killing of pMEF2C-negative HEL cell line; type: cell-based
[16] = molecular target: CSF1R (Homo sapiens (Human), UniProt P07333); type: biochemical; details: Kinase Profiler
Chain of CSF1R (P07333 20-972 limits assumed): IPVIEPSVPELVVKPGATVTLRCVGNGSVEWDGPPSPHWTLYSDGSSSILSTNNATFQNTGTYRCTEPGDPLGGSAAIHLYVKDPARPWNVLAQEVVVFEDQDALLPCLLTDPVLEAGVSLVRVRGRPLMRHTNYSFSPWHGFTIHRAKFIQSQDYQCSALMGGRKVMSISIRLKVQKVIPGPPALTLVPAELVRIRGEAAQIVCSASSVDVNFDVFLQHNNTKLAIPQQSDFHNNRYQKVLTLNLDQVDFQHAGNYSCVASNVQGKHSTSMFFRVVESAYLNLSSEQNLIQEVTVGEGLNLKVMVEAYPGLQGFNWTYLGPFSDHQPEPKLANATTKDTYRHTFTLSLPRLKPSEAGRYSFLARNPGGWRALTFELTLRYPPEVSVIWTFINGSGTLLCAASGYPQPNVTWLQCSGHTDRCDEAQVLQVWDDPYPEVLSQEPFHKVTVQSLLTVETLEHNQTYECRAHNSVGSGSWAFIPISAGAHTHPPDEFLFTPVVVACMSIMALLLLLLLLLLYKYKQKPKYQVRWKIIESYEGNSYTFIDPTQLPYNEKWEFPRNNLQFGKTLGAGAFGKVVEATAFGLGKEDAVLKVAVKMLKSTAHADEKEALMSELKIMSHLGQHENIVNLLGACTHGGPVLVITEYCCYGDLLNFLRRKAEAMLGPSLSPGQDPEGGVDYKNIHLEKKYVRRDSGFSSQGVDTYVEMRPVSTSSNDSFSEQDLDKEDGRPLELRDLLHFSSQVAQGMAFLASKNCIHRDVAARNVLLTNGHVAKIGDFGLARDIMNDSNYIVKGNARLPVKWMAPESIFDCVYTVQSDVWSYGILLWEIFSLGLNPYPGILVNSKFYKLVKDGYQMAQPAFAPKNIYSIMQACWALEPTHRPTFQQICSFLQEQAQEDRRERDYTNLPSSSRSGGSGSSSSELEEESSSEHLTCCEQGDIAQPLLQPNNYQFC

[17] = Human hepatocyte stability; type: in vitro ADME; details: human, hepatocytes
[18] = Mouse hepatocyte stability; type: in vitro ADME; details: hepatocytes
[19] = Plasma stability in human plasma; type: in vitro ADME; details: read-out: plasma stability T1/2
[20] = Plasma stability in mouse plasma; type: in vitro ADME; details: read-out: plasma stability T1/2
[21] = test system: KASUMI-1 cell line; assay: Growth inhibition (GI50) of AML cell lines; type: cell-based
[22] = test system: MV4-11 cell line; assay: Growth inhibition (GI50) of AML cell lines; type: cell-based; details: Homo sapiens, MV4-11, read-out: GI50 against MV4-11 cell line
[23] = test system: HEL cell line; assay: Growth inhibition (GI50) of AML cell lines; type: cell-based; details: Homo sapiens, pMEF2C-negative, read-out: GI50 against HEL cell line
[24] = microsomes
[25] = microsomes; remark: listed apart in the source
[26] = in vivo
[27] = in vivo; details: male, CD1, mouse, po, 30 mg/kg
[28] = in vitro; details: human, microsomes
[29] = in vitro; details: mouse, microsomes
[30] = Human plasma-protein binding
[31] = Murine plasma protein binding
[32] = Metabolite profile in hepatocytes / in vivo
Source text: Metabolites are identified using high-resolution mass spectrometry.

[33] = test system: MC38 colorectal carcinoma tumours; assay: MC38 syngeneic mouse tumour model (Example 8.1); details: MC38; 100 mg/Kg, BID po
[34] = test system: HDAC4 phosphorylation in PANC-1 cells; assay: HDAC4 phosphorylation (Meso Scale Discovery assay); details: 10 ng/mL rHuTNF
[35] = test system: MC38 murine tumour cell line; assay: TNF-sensitised cell viability assay (CellTiter-Glo); details: Mus musculus
[36] = test system: HCT116 cells; assay: as above; details: Homo sapiens, HCT-116, read-out: HCT116 IC50 (at 10 ng/ml rHuTNF)
[37] = test system: NFKB activity in PANC-1 cells; assay: TNF-induced NFKB activity (NFKB-dependent luciferase reporter); details: 10 ng/ml rHuTNF
[38] = test system: NFKB activity in MC38 cells; assay: as above; details: 10 ng/ml rMuTNF
[39] = molecular target: ABL1 wt (Homo sapiens (Human), UniProt P00519); type: biochemical
Chain of ABL1 wt (P00519 118-535 limits assumed): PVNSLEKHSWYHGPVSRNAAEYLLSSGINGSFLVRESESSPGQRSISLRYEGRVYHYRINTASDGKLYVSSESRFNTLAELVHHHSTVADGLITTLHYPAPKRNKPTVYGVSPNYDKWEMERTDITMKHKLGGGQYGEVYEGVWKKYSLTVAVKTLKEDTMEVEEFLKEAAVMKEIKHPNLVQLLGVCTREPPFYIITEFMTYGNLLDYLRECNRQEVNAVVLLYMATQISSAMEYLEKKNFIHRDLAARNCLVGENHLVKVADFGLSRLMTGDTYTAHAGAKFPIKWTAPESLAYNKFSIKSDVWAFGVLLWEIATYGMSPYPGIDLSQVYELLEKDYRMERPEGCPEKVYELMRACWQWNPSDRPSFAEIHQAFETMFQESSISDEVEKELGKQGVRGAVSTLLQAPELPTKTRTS

[40] = molecular target: SRC (GST-HIS-tag) (Homo sapiens (Human), UniProt P12931); type: biochemical
[41] = molecular target: SIK1 (Homo sapiens (Human), UniProt P57059); details: read-out: SIK1 IC50
[42] = molecular target: SIK3 (Homo sapiens (Human), UniProt Q9Y2K2); details: read-out: SIK3 IC50
[43] = molecular target: SIK2 (Homo sapiens (Human), UniProt Q9H0K1); details: read-out: SIK2 IC50
[44] = test system: AML; details: administered intraperitoneally; cited from earlier work
[45] = test system: K562 human CML tumours; details: PO once a day for 10 days, 5-days-on and 2-days off; cited from earlier work
[46] = in vivo; cited from earlier work

T1 sequence (P07949 29-1114 limits assumed): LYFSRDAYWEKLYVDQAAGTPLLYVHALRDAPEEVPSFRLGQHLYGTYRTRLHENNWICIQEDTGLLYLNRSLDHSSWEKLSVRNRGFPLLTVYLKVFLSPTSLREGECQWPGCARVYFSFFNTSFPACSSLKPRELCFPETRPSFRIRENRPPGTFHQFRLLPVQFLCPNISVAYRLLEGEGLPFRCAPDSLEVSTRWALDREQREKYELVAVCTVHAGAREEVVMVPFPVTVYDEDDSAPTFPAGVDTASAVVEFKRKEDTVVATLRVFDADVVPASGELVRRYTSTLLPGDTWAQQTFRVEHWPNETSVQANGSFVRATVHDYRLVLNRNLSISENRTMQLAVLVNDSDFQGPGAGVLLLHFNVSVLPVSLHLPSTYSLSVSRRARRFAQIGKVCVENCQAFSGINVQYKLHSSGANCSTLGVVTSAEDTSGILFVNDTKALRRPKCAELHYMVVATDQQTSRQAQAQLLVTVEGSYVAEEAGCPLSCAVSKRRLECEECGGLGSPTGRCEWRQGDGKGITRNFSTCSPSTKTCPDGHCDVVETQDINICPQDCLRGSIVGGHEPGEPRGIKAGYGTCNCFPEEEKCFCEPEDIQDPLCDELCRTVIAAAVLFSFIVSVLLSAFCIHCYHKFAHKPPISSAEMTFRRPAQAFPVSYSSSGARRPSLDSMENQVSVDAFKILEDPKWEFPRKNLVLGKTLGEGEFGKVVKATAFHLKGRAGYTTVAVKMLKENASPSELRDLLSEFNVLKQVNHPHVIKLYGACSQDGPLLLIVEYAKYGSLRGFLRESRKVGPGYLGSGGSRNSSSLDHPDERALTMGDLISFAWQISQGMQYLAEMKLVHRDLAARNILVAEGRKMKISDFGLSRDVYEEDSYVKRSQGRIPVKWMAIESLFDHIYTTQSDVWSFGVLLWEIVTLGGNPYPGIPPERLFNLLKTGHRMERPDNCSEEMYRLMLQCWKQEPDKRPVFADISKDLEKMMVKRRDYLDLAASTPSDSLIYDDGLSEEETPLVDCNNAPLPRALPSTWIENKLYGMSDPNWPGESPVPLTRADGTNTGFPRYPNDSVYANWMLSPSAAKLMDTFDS

Cc1nc(Nc2ncc(C(=O)Nc3c(C)cccc3Cl)s2)cc(N2CCN(CCO)CC2)n1 [Compound A8, N-(2-chloro-6-methylphenyl)-2-((6-(4-(2-hydroxyethyl)piperazin-1-yl)-2-methylpyrimidin-4-yl)amino)thiazole-5-carboxamide]
HCK residual activity [1]: less than 1% | RET residual activity (%) at 1 μM [2]: 39% | outcome in mice bearing large KU812 tumours [3]: curative | survival of mice inoculated intracranially with K562 CML cells [4]: increased survival | severe gastrointestinal haemorrhage, including fatalities ([5]; all clinical studies): 4 % of patients | cardiomyopathy, heart failure congestive, diastolic dysfunction, fatal myocardial infarction, and left ventricular dysfunction ([5]; human, in vivo): 1.6 % of patients | Papp ([6]; Mean Papp A > B (10^−6 cm/s)): 21 ×10⁻⁶ cm/s | Papp ([6]; Mean Papp B > B (10^−6 cm/s)): 49 ×10⁻⁶ cm/s | Papp [7]: 105 ×10⁻⁶ cm/s | Papp ([7]; Mean Papp A > B (10^−6 cm/s)): 2.4 ×10⁻⁶ cm/s | inhibition of hERG currents at 3 uM [8]: about 6% | inhibition of hERG currents at 10 uM [8]: ~36% | patients with cardiomyopathy, heart failure congestive, diastolic dysfunction, fatal myocardial infarction, and left ventricular dysfunction [9]: 1.6% | remaining activity at 1 µM [10]: < 40% | Cmax (ng/ml), Total [11]: 550 ng/mL | Cmax after 2 h [12]: 550 ng/mL

Cc1nc(Nc2ncc(C(=O)Nc3c(C)csc3Cl)s2)cc(N2CCN(CCO)CC2)n1 [Compound C7, N-(2-chloro-4-methylthiophen-3-yl)-2-((6-(4-(2-hydroxyethyl)piperazin-1-yl)-2-methylpyrimidin-4-yl)amino)thiazole-5-carboxamide]
lysis of AML cell lines [13]: strong lysis | cell killing [14]: highly potent cell killing | cell killing [15]: low cell killing | CSF1R residual activity [16]: less than 1% | HCK residual activity [1]: less than 1% | half-life ([17]; read-out: Human hepatocyte stability, Half-life): 54 min | microsomal CLint ([17]; read-out: Human hepatocyte stability, Intrinsic clearance): 26 µL/min/mg | half-life ([17]; read-out: half-life in the presence of human hepatocytes (converted)): ~60 min | half-life [18]: 50 min | microsomal CLint ([18]; read-out: Mouse hepatocyte stability, Intrinsic clearance): 28 µL/min/mg | half-life [19]: > 150 min | half-life [20]: > 150 min | GI50 ([21]; Homo sapiens, Kasumi 1, read-out: GI50 against KASUMI-1 cell line, pMEF2C-positive): ~2 nM | GI50 ([21]; read-out: GI50 against KASUMI-1 cell line, pMEF2C-positive): 1.6 nM | GI50 [22]: 480 nM | GI50 [23]: ~5000 nM | Human liver microsomal stability, Intrinsic clearance [24]: 2.53e+08 µL/min/mg | Human liver microsomal stability, % Remaining at 40 min (%) [24]: 1% | Mouse liver microsomal stability, % Remaining at 40 min (%) [25]: 10% | % AUCextrap ([26]; male, CD1, mouse, iv, 1 mg/kg): 5.81% | % AUCextrap ([26]; male, CD1, mouse, po, 30 mg/kg): 0.45% | % AUCextrap, Free ([26]; male, CD1, mouse, po, 30 mg/kg): 11.24% | % AUCextrap, Total ([26]; male, CD1, mouse, po, 30 mg/kg): 11.24% | AUCinf (nM*h), Free ([26]; male, CD1, mouse, po, 30 mg/kg): 58.79 nM·h | AUClast (nM*h), Free ([26]; male, CD1, mouse, po, 30 mg/kg): 52.07 nM·h | Rsq, Free ([26]; mouse, po, 30 mg/kg): 0.99 | Rsq, Total ([26]; mouse, po, 30 mg/kg): 0.99 | tolerable dose (BID by gavage, female C57BL/6, seven days): up to 100 mg/kg | HRD in vivo @BID (highest recommended dose, BID): 100 mg/kg | HRD in vivo @QD (highest recommended dose, QD): 100 mg/kg | AUC(0-inf) [27]: 1.31 µM·h | AUC(0-t) [27]: 1.16 µM·h | Cmax [27]: 474 ng/mL | MRT last [27]: 165 min | half-life [27]: 85.2 min | half-life [28]: 10 min | microsomal CLint [28]: 142 µL/min/mg | half-life [29]: 13 min | microsomal CLint [29]: 110 µL/min/mg | Papp ([6]; Mean Papp A > B (10^−6 cm/s)): 9 ×10⁻⁶ cm/s | Papp ([7]; Mean Papp A > B (10^−6 cm/s)): 2 ×10⁻⁶ cm/s | Human plasma-protein binding, Percentage unbound (%) ([30]; Table 5A): <1% | Human plasma-protein binding, Percentage unbound (%) ([30]; Table 5.1A): 2% | recovery at 4 h ([30]; human): 75% | Murine plasma protein binding, Percentage unbound (%) ([31]; Table 5A): 5% | Murine plasma protein binding, Percentage unbound (%) ([31]; Table 5.1A): 3% | recovery at 4 h ([31]; mouse): 87% | quinone-imine reactive metabolite [32]: not observed | Body weight increase (%) [33]: 1.0% | Non-treatment related death [33]: 3/16 | Tumour growth inhibition (%) [33]: 78% | Inhibition of HDAC4 phosphorylation ([34]; 3 h): + | Inhibition of HDAC4 phosphorylation ([34]; 3 h (Table 9C)): + | IC50 ([35]; MC-38, read-out: MC38 IC50 (at 100 ng/mL rMuTNF)): < 200 nM | EC50 ([35]; MC-38, read-out: mean EC50 of sensitising MC38 tumour cells to TNF-mediated killing): ~150 nM | IC50 [36]: < 100 nM | Inhibition of NFKB activity (PANC-1) ([37]; PANC-1 reporter cells): + | Inhibition of NFKB activity ([37]; PANC-1 reporter cells (Table 9C)): + | Inhibition of NFKB activity (MC38) [38]: +

Cc1nc(Nc2ncc(C(=O)Nc3c(C)noc3C)s2)cc(N2CCN(CCO)CC2)n1 [Compound C9]
IC50 [39]: 27.4 nM | IC50 [40]: 6.44 nM | IC50 [41]: 169 nM | IC50 [42]: 800 nM | Human liver microsomal stability, Intrinsic clearance [24]: <1.4e+07 µL/min/mg | Human liver microsomal stability, % Remaining at 40 min (%) [24]: 89% | Mouse liver microsomal stability, Intrinsic clearance (L/min/mg) [25]: <14 | Mouse liver microsomal stability, % Remaining at 40 min (%) [25]: 83% | Human plasma-protein binding, Percentage unbound (%) ([30]; Table 5A): 6% | Murine plasma protein binding, Percentage unbound (%) ([31]; Table 5A): 44% | IC50 [43]: 232 nM

COc1ccc(N2C(=O)N(c3c(C)cccc3Cl)Cc3cnc(Nc4ccc(C5CCN(C)CC5)cc4OC)nc32)nc1 [YKL-05-099]
AML progression [44]: supressed AML progression in-vivo

Cc1ccc(NC(=O)c2ccc(CN3CCN(C)CC3)cc2)cc1Nc1nccc(-c2cccnc2)n1 [imatinib]
outcome in mice bearing K562 human CML tumours [45]: failed to produce a comparative response

Cc1cn(-c2cc(NC(=O)c3ccc(C)c(Nc4nccc(-c5cccnc5)n4)c3)cc(C(F)(F)F)c2)cn1 [nilotinib]
terminal / elimination half-life [46]: approximately 17 hours
